Test results reported in ChEMBL document CHEMBL3272309, “Potential central nervous system antitumor agents. Aziridinylbenzoquinones. 1” (J Med Chem, 1976).
In brackets after ≈: the same amount, converted by molar mass. Activity calls are given as the source filed them. No cut-off for these calls is given here.

Key:
P388 [1] = assay: Antitumor activity against mouse P388 cells allografted in mouse assessed as change in body weight at 3.12 mg/kg, ip qd administered from day 1 to 9 post intracerebral tumor-implantation measured on day 5 relative to control; format: functional; settings: route intraperitoneal
[2] = test system: Lewis lung carcinoma cell line; assay: Antitumor activity against mouse LLC cells allografted in mouse assessed as change in body weight at 2 mg/kg, ip qd administered from day 5 to 15 post sc tumor-implantation measured on day 5 relative to control; format: functional; settings: route subcutaneous
B16 [3] = assay: Antitumor activity against mouse B16 cells allografted in mouse assessed as change in body weight at 3.12 mg/kg, ip qd administered from day 1 to 9 post ip tumor-implantation measured on day 5 relative to control; format: functional; settings: route intraperitoneal
[4] = Antitumor activity against mouse ependymoblastoma cells allografted in mouse assessed as change in body weight at 0.5 mg/kg, ip qd administered from day 1 to 5 post intracerebral tumor-implantation measured on day 5 relative to control; format: functional; settings: route intraperitoneal
Mus musculus [5] = assay: Toxicity in mouse allografted with mouse P388 cells at 6.25 mg/kg, ip qd administered from day 1 to 9 post ip tumor-implantation; format: organism-based; set-up: dose 6.25 mg/kg, route intraperitoneal; settings: in vivo
Mus musculus [6] = assay: Toxicity in mouse allografted with mouse L1210 cells at 12.5 mg/kg, ip qd administered from day 1 to 9 post ip tumor-implantation; format: organism-based; set-up: dose 12.5 mg/kg, route intraperitoneal; settings: in vivo
L1210 [7] = assay: Antitumor activity against mouse L1210 cells allografted in mouse assessed as change in body weight at 3.12 mg/kg, ip qd administered from day 1 to 9 post ip tumor-implantation measured on day 5 relative to control; format: functional; settings: route intraperitoneal
[8] = Antitumor activity against mouse ependymoblastoma cells allografted in mouse assessed as change in body weight at 1 mg/kg, ip qd administered from day 1 to 5 post intracerebral tumor-implantation measured on day 5 relative to control; format: functional; settings: route intraperitoneal
L1210 [9] = assay: Antitumor activity against mouse L1210 cells allografted in mouse assessed as change in body weight at 6.25 mg/kg, ip qd administered from day 1 to 9 post ip tumor-implantation measured on day 5 relative to control; format: functional; settings: route intraperitoneal
P388 [10] = assay: Antitumor activity against mouse P388 cells allografted in mouse assessed as mouse survival at 0.78 mg/kg, ip qd administered from day 1 to 9 post ip tumor-implantation relative to control; format: functional; settings: route intraperitoneal
L1210 [11] = assay: Antitumor activity against mouse L1210 cells allografted in mouse assessed as mouse survival at 1.3 mg/kg, ip qd administered from day 1 to 9 post ip tumor-implantation relative to control; format: functional; settings: route intraperitoneal
[12] = Therapeutic ratio, ratio of highest active dose to lowest active for antitumor activity against in ip dosed mouse allografted with mouse P388 cells; format: ADME, organism-based; settings: in vivo, read-out: TI
L1210 [13] = assay: Antitumor activity against mouse L1210 cells allografted in ip dosed mouse at optimum dose administered qd on day 1, 5 and 9 relative to control; format: functional
L1210 [14] = assay: Antitumor activity against mouse L1210 cells allografted in mouse assessed as change in body weight at 12.5 mg/kg, ip qd administered from day 1 to 9 post ip tumor-implantation measured on day 5 relative to control; format: functional; settings: route intraperitoneal
[15] = Antitumor activity against mouse ependymoblastoma cells allografted in mouse assessed as mouse survival at 1 mg/kg, ip qd administered from day 1 to 5 post intracerebral tumor-implantation relative to control; format: functional; settings: route intraperitoneal
L1210 [16] = assay: Antitumor activity against mouse L1210 cells allografted in mouse assessed as mouse survival at 2 mg/kg, ip qd administered from day 1 to 9 post ip tumor-implantation relative to control; format: functional; settings: route intraperitoneal
P388 [17] = assay: Antitumor activity against mouse P388 cells allografted in mouse assessed as change in body weight at 6.25 mg/kg, ip qd administered from day 1 to 9 post ip tumor-implantation measured on day 5 relative to control; format: functional; settings: route intraperitoneal
[18] = Antitumor activity against mouse ependymoblastoma cells allografted in mouse assessed as mouse survival at 2 mg/kg, ip qd administered from day 1 to 5 post intracerebral tumor-implantation relative to control; format: functional; settings: route intraperitoneal
P388 [19] = assay: Antitumor activity against mouse P388 cells allografted in mouse assessed as mouse survival at 1.56 mg/kg, ip qd administered from day 1 to 9 post intracerebral tumor-implantation relative to control; format: functional; settings: route intraperitoneal
[20] = Antitumor activity against mouse ependymoblastoma cells allografted in mouse assessed as change in body weight at 8 mg/kg, ip qd administered from day 1 to 5 post intracerebral tumor-implantation measured on day 5 relative to control; format: functional; settings: route intraperitoneal
P388 [21] = assay: Antitumor activity against mouse P388 cells allografted in mouse assessed as change in body weight at 1.56 mg/kg, ip qd administered from day 1 to 9 post intracerebral tumor-implantation measured on day 5 relative to control; format: functional; settings: route intraperitoneal
P388 [22] = assay: Antitumor activity against mouse P388 cells allografted in mouse assessed as change in body weight at 1.56 mg/kg, ip qd administered from day 1 to 9 post ip tumor-implantation measured on day 5 relative to control; format: functional; settings: route intraperitoneal
Mus musculus [23] = assay: Antitumor activity against mouse ependymoblastoma cells allografted in mouse assessed as cure rate at 2 mg/kg, ip qd administered from day 1 to 5 post intracerebral tumor-implantation measured on day 99; format: functional, organism-based; set-up: dose 2 mg/kg
Mus musculus [24] = assay: Toxicity in mouse allografted with mouse P388 cells at 6.25 mg/kg, ip qd administered from day 1 to 9 post intracerebral tumor-implantation; format: organism-based; set-up: dose 6.25 mg/kg, route intraperitoneal; settings: in vivo
Mus musculus [25] = assay: Toxicity in mouse allografted with mouse B16 cells at 6.25 mg/kg, ip qd administered from day 1 to 9 post ip tumor-implantation; format: organism-based; set-up: dose 6.25 mg/kg, route intraperitoneal; settings: in vivo
B16 [26] = assay: Antitumor activity against mouse B16 cells allografted in mouse assessed as mouse survival at 3.12 mg/kg, ip qd administered from day 1 to 9 post ip tumor-implantation relative to control; format: functional; settings: route intraperitoneal
L1210 [27] = assay: Antitumor activity against mouse L1210 cells allografted in mouse assessed as mouse survival at 0.88 mg/kg, ip qd administered from day 1 to 9 post ip tumor-implantation relative to control; format: functional; settings: route intraperitoneal
L1210 [28] = assay: Antitumor activity against mouse L1210 cells allografted in mouse assessed as change in body weight at 3.12 mg/kg, ip qd administered from day 1 to 9 post intracerebral tumor-implantation measured on day 5 relative to control; format: functional; settings: route intraperitoneal
B16 [29] = assay: Antitumor activity against mouse B16 cells allografted in mouse assessed as mouse survival at 1.56 mg/kg, ip qd administered from day 1 to 9 post ip tumor-implantation relative to control; format: functional; settings: route intraperitoneal
[30] = Aqueous solubility of the compound; format: physicochemical
[31] = Antitumor activity against mouse ependymoblastoma cells allografted in mouse assessed as mouse survival at 4 mg/kg, ip qd administered from day 1 to 5 post intracerebral tumor-implantation relative to control; format: functional; settings: route intraperitoneal
L1210 [32] = assay: Antitumor activity against mouse L1210 cells allografted in mouse assessed as mouse survival at 6.25 mg/kg, ip qd administered from day 1 to 9 post intracerebral tumor-implantation relative to control; format: functional; settings: route intraperitoneal
L1210 [33] = assay: Antitumor activity against mouse L1210 cells allografted in mouse assessed as mouse survival at 0.78 mg/kg, ip qd administered from day 1 to 9 post intracerebral tumor-implantation relative to control; format: functional; settings: route intraperitoneal
L1210 [34] = assay: Antitumor activity against mouse L1210 cells allografted in mouse assessed as mouse survival at 3.12 mg/kg, ip qd administered from day 1 to 9 post intracerebral tumor-implantation relative to control; format: functional; settings: route intraperitoneal

CCOC(=O)NC1=C(N2CC2)C(=O)C(NC(=O)OCC)=C(N2CC2)C1=O [DIAZIQUONE]
Activity (P388 [1]): -2.1 g | Activity [2]: 0.3 g | Activity (B16 [3]): -2.7 g | Activity [4]: -1.8 g | Activity (Mus musculus [5]): Toxic | Activity (Mus musculus [6]): Toxic | Activity (L1210 [7]): -4.1 g | Activity [8]: -2.1 g | Activity (L1210 [9]): -4.1 g | T/C (P388 [10]): 199% | T/C (L1210 [11]): 160% | selectivity ratio [12]: 3 | T/C (L1210 [13]): 154% | Activity (L1210 [14]): -5 g | T/C [15]: 226% | T/C (L1210 [16]): 201% | Activity (P388 [17]): -6.1 g | T/C [18]: 271% | T/C (P388 [19]): 137% | Activity [20]: -5 g | Activity (P388 [21]): -1.1 g | Activity (P388 [22]): -4 g | Activity (Mus musculus [23]): Active | Activity (Mus musculus [24]): Toxic | Activity (Mus musculus [25]): Toxic | T/C (B16 [26]): 143% | T/C (L1210 [27]): 132% | Activity (L1210 [28]): -2.1 g | T/C (B16 [29]): 138% | solubility [30]: 500 µg/mL (≈ 1370 µM) | T/C [31]: 376% | T/C (L1210 [32]): 103% | T/C (L1210 [33]): 103% | T/C (L1210 [34]): 179%
